Results: ChEMBL document CHEMBL3739364, “Synthesis and biological evaluation of novel 5-(hydroxamic acid)methyl oxazolidinone derivatives” (Eur J Med Chem, 2015)
≈ marks a conversion by molar mass, not a printed value.

Columns and labels:
[1] = system: Staphylococcus epidermidis; assay: Antibacterial activity against methicillin-sensitive Staphylococcus epidermidis ATCC 12228; format: functional
Streptococcus pneumoniae = assay: Antibacterial activity against Streptococcus pneumoniae; format: functional
Escherichia coli = assay: Antibacterial activity against Escherichia coli ATCC 25922; format: functional
Haemophilus influenzae = assay: Antibacterial activity against Haemophilus influenzae ATCC 49247; format: functional
[2] = target: T1, MAO-A (amine oxidase [flavin-containing] A) (Homo sapiens, UniProt P21397); assay: Inhibition of human recombinant MAO-A using p-tyramine as substrate at 50 to 200 uM measured up to 50 mins by ELISA screening analysis; details: probe p-tyramine
T1 sequence (P21397 whole entry): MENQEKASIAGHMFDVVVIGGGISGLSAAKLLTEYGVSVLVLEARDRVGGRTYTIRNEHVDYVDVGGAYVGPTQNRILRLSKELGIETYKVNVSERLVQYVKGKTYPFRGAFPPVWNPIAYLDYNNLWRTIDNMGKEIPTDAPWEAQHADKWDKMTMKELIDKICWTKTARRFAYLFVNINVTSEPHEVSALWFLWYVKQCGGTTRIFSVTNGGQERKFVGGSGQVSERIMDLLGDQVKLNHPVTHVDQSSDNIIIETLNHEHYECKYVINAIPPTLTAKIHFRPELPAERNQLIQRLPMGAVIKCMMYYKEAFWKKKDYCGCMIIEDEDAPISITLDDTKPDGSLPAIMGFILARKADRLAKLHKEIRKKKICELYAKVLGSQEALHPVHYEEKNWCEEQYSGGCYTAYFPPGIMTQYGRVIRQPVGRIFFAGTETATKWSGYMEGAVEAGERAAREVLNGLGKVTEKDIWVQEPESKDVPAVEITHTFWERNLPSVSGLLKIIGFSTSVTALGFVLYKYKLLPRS

[3] = target: T2, MAO-B (amine oxidase [flavin-containing] B) (Homo sapiens, UniProt P27338); assay: Inhibition of human recombinant MAO-B using p-tyramine as substrate at 50 to 200 uM measured up to 50 mins by ELISA screening analysis; details: probe p-tyramine
T2 sequence (P27338 whole entry): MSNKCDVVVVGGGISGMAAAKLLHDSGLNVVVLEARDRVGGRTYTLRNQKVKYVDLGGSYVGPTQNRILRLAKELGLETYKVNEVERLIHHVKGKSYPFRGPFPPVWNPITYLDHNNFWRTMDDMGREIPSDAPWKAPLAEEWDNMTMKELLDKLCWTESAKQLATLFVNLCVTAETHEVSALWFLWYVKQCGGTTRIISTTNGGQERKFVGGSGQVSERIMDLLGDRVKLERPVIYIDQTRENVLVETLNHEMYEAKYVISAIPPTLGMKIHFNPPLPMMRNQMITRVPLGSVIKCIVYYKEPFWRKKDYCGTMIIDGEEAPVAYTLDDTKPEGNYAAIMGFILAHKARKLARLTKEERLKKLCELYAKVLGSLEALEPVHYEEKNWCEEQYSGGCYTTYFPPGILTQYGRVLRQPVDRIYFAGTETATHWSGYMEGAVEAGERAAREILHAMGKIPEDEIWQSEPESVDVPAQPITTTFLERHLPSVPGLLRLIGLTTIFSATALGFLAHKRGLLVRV

[4] = system: Mycobacterium tuberculosis; assay: Antimycobacterial activity against Mycobacterium tuberculosis H37Rv; format: functional
Staphylococcus aureus [5] = assay: Antibacterial activity against […] Staphylococcus aureus ATCC 25923; format: functional
[6] = target: T3, Amine oxidase [flavin-containing] A (Homo sapiens, UniProt P21397); assay: Inhibition of human recombinant MAO-A using p-tyramine as substrate after 15 mins by UV/Vis spectrophotometer analysis
T3 sequence (P21397 whole entry): T1 sequence (P21397 whole entry)

[7] = target: T4, Amine oxidase [flavin-containing] B (Homo sapiens, UniProt P27338); assay: Inhibition of human recombinant MAO-B using p-tyramine as substrate after 15 mins by UV/Vis spectrophotometer analysis
T4 sequence (P27338 whole entry): T2 sequence (P27338 whole entry)

Homo sapiens = species on record: Homo sapiens; assay: Selectivity ratio of IC50 for human recombinant MAO-A to IC50 for human recombinant MAO-B
[8] = target: T3, Amine oxidase [flavin-containing] A; assay: Reversible inhibition of human MAO-A
[9] = target: T4, Amine oxidase [flavin-containing] B; assay: Reversible inhibition of human MAO-B
[10] = system: Mycobacterium tuberculosis; assay: Antimycobacterial activity against Mycobacterium tuberculosis H37Rv ATCC 27294; format: functional
Staphylococcus aureus [11] = assay: Antibacterial activity against […] Staphylococcus aureus ATCC 25923 after 18 hrs by broth dilution method; format: functional; details: ATCC 25923, 18 h
[12] = system: Staphylococcus epidermidis; assay: Antibacterial activity against methicillin-sensitive Staphylococcus epidermidis ATCC 12228 after 18 hrs by broth dilution method; format: functional; details: ATCC 12228, 18 h

Structure (SMILES) | MIC [1] | MIC (Streptococcus pneumoniae) | MIC (Escherichia coli) | MIC (Haemophilus influenzae) | inhibition at 50 min [2] | inhibition at 50 min [3] | MIC [4] | MIC (Staphylococcus aureus [5]) | IC50 [6] | IC50 [7] | Ratio IC50 (Homo sapiens) | IC50 [8] | IC50 [9] | MIC50 [10] | MIC90 [10] | MIC (Staphylococcus aureus [11]) | MIC [12]
CC(=O)N1CCN(c2ccc(N3C[C@H](CN(OC(=O)C(C)C)C(=O)C(C)C)OC3=O)cc2F)CC1 | > 32 µg/mL | > 32 µg/mL | > 32 µg/mL | > 32 µg/mL | < 50% | < 50% |  |  |  |  |  |  |  |  |  |  | 
NC(=S)NC[C@H]1CN(c2ccc(C3CCCCC3=O)c(F)c2)C(=O)O1 (some centres not stated) |  |  |  |  |  |  | 0.06 µg/mL (≈ 0.164 µM) |  |  |  |  |  |  |  |  |  | 
CC(=O)N1CCN(c2ccc(N3C[C@H](CNO)OC3=O)cc2F)CC1.O=C(O)C(F)(F)F | > 32 µg/mL | > 32 µg/mL | > 32 µg/mL | > 32 µg/mL | ≥ 50% |  |  | > 32 µg/mL | 46.6 µM |  |  |  |  |  |  |  | 
CCC(=O)N(O)C[C@H]1CN(c2ccc(N3CCN(C(C)=O)CC3)c(F)c2)C(=O)O1 | > 32 µg/mL | > 32 µg/mL | > 32 µg/mL | > 32 µg/mL | < 50% |  |  | > 32 µg/mL |  |  |  |  |  |  |  |  | 
CCC(=O)N(O)C[C@H]1CN(c2ccc(N3CCOCC3)c(F)c2)C(=O)O1 | > 32 µg/mL | > 32 µg/mL | > 32 µg/mL | > 32 µg/mL | ≥ 50% | ≥ 50% |  | > 32 µg/mL | 115 µM | 100 µM | 1.15 |  |  |  |  |  | 
O=C1O[C@@H](CNO)CN1c1ccc(N2CCOCC2)c(F)c1 | > 32 µg/mL | > 32 µg/mL | > 32 µg/mL | > 32 µg/mL | ≥ 50% | ≥ 50% |  | > 32 µg/mL | 144 µM | 112 µM | 1.29 |  |  |  |  |  | 
CC(=O)NC[C@H]1CN(c2ccc(N3CCOCC3)c(F)c2)C(=O)O1 [LINEZOLID] | 2 µg/mL (≈ 5.93 µM) |  |  |  | ≥ 50% | ≥ 50% |  |  |  |  |  | 46 µM | 2.1 µM |  |  |  | 
CCC(=O)ON(C[C@H]1CN(c2ccc(N3CCOCC3)c(F)c2)C(=O)O1)C(=O)CC | > 32 µg/mL | > 32 µg/mL | > 32 µg/mL | > 32 µg/mL | < 50% | ≥ 50% |  |  |  | 168 µM |  |  |  |  |  |  | 
O=C(ON(C[C@H]1CN(c2ccc(N3CCOCC3)c(F)c2)C(=O)O1)C(=O)C1CC1)C1CC1 | > 32 µg/mL | > 32 µg/mL | > 32 µg/mL | > 32 µg/mL | < 50% | < 50% |  |  |  |  |  |  |  |  |  |  | 
Cn1nnc(-c2ccc(-c3ccc(N4C[C@H](CO)OC4=O)cc3F)cn2)n1 [TEDIZOLID] |  |  |  |  |  |  |  |  |  |  |  | 8.7 µM | 5.7 µM |  |  |  | 
CC(=O)ON(C[C@H]1CN(c2ccc(N3CCN(C(C)=O)CC3)c(F)c2)C(=O)O1)C(C)=O | > 32 µg/mL | > 32 µg/mL | > 32 µg/mL | > 32 µg/mL | < 50% |  |  |  |  |  |  |  |  |  |  |  | 
CC(=O)N1CCN(c2ccc(N3C[C@H](CN(OC(=O)C4CC4)C(=O)C4CC4)OC3=O)cc2F)CC1 | > 32 µg/mL | > 32 µg/mL | > 32 µg/mL | > 32 µg/mL | < 50% |  |  |  |  |  |  |  |  |  |  |  | 
O=C(C1CC1)N(O)C[C@H]1CN(c2ccc(N3CCOCC3)c(F)c2)C(=O)O1 | > 32 µg/mL | > 32 µg/mL | > 32 µg/mL | > 32 µg/mL | ≥ 50% | ≥ 50% |  | > 32 µg/mL | 112 µM | 90.9 µM | 1.23 |  |  |  |  |  | 
CC(=O)N(O)C[C@H]1CN(c2ccc(N3CCN(C(C)=O)CC3)c(F)c2)C(=O)O1 | > 32 µg/mL | > 32 µg/mL | > 32 µg/mL | > 32 µg/mL | < 50% | < 50% |  | > 32 µg/mL |  |  |  |  |  |  |  |  | 
CC(C)C(=O)ON(C[C@H]1CN(c2ccc(N3CCOCC3)c(F)c2)C(=O)O1)C(=O)C(C)C | > 32 µg/mL | > 32 µg/mL | > 32 µg/mL | > 32 µg/mL | < 50% | ≥ 50% |  |  |  | 108 µM |  |  |  |  |  |  | 
CC(C)C(=O)N(O)C[C@H]1CN(c2ccc(N3CCOCC3)c(F)c2)C(=O)O1 | > 32 µg/mL | > 32 µg/mL | > 32 µg/mL | > 32 µg/mL | < 50% | ≥ 50% |  | > 32 µg/mL |  | 107 µM |  |  |  |  |  |  | 
CC(=O)N(O)C[C@H]1CN(c2ccc(N3CCOCC3)c(F)c2)C(=O)O1 |  | > 32 µg/mL | > 32 µg/mL | > 32 µg/mL | < 50% | < 50% |  |  |  |  |  |  |  | 1.38 µg/mL (≈ 3.91 µM) | 4.6 µg/mL (≈ 13 µM) | > 32 µg/mL | 16 µg/mL (≈ 45.3 µM)
CCC(=O)ON(C[C@H]1CN(c2ccc(N3CCN(C(C)=O)CC3)c(F)c2)C(=O)O1)C(=O)CC | > 32 µg/mL | > 32 µg/mL | > 32 µg/mL | > 32 µg/mL | < 50% |  |  |  |  |  |  |  |  |  |  |  | 
CC(=O)ON(C[C@H]1CN(c2ccc(N3CCOCC3)c(F)c2)C(=O)O1)C(C)=O | > 32 µg/mL | > 32 µg/mL | > 32 µg/mL | > 32 µg/mL | < 50% | < 50% |  |  |  |  |  |  |  |  |  |  | 
